Experimental data as given in US6177253A, “Screening methods for the identification of anti-HIV compounds employing a cyclosporine-specific monoclonal antibody that cross-reacts with HIV-1 p24” (priority 1998, dated 2001).

Legend:
Assay type in all cases: binding, BALB/c mice
H4 1.3 = assay: ELISA inhibition by singly modified Cs-derivatives, McAb H4 1.3; conditions: group II; D-Lys^8 -Cs-BSA coating
Experimental: (§1) A second ELISA Procedure used conjugates of D-Lys^8 -Cs-BSA and Thr^2 -Cs-BSA for coating (Queeniaux et al., 1987b). An indirect detection system consisting of rabbit anti-mouse Ig followed by alkaline phosphates-conjugated goat anti-rabbit IgG was performed as previously described (Queenlaux et al., 1987b).
(§2) The binding of the 22 McAbs to these two Cs-BSA conjugates was also found to correlate well with their fine specificity patterns, as characterized with a set of 28-36 Cs derivatives. Typical ELISA curves showing McAb binding either to D-Lys^8 -Cs-BSA (panel A) or to Thr^2 -Ca-BSA (panel B) and inhibited by Cs or Cs derivatives are shown in FIGS. 8A-8B, D-Lys^8 -Cs-BSA was subsequently used for coating in the inhibition experiments, except for those McAbs binding selectively to Thr^2 -Cs-BSA (see Table 4 and FIGS. 7A-7C). An example of the binding of 26 Cs derivatives by McAbs belonging to each of the five specificity groups mentioned above is reported in Table 5. The results are expressed as the difference of IC50 (in log10) between the Cs derivatives and Cs. All Cs-derivatives used in this study were selected for having a conserved peptide ring conformation compared with CsA (as determined in NMR or X-ray diffraction).

H6 1.5 = assay: ELISA inhibition by singly modified Cs-derivatives, McAb H6 1.5; conditions: group III; D-Lys^8 -Cs-BSA coating
Experimental: as §1, §2

G7 1.1 = assay: ELISA inhibition by singly modified Cs-derivatives, McAb G7 1.1; conditions: group I; McAb binds selectively to Thr^2 -Cs-BSA coating
Experimental: as §1, §2

C4 2.2 = assay: ELISA inhibition by singly modified Cs-derivatives, McAb C4 2.2; conditions: group V; McAb binds selectively to Thr^2 -Cs-BSA coating
Experimental: as §1, §2

B11 1.4 = assay: ELISA inhibition by singly modified Cs-derivatives, McAb B11 1.4; conditions: group IV; D-Lys^8 -Cs-BSA coating
Experimental: as §1, §2

Row | Compound | log10 difference in the concentrations of Cs-derivatives and unmodified Cs required to achieve 50% inhibition in ELISA, McAb H4 1.3 (H4 1.3) [log10] | log10 difference in the concentrations of Cs-derivatives and unmodified Cs required to achieve 50% inhibition in ELISA, McAb H6 1.5 (H6 1.5) [log10] | log10 difference in the concentrations of Cs-derivatives and unmodified Cs required to achieve 50% inhibition in ELISA, McAb G7 1.1 (G7 1.1) [log10] | log10 difference in the concentrations of Cs-derivatives and unmodified Cs required to achieve 50% inhibition in ELISA, McAb C4 2.2 (C4 2.2) [log10] | log10 difference in the concentrations of Cs-derivatives and unmodified Cs required to achieve 50% inhibition in ELISA, McAb B11 1.4 (B11 1.4) [log10]
1 | C/C=C/C[C@@H](C)[C@@H](O)[C@H]1C(=O)N[C@@H](CC)C(=O)N(C)CC(=O)N(C)[C@@H](CC(C)C)C(=O)N[C@@H](C(C)C)C(=O)N(C)[C@@H](CC(C)C)C(=O)N[C@@H](C)C(=O)N[C@H](C)C(=O)N(C)[C@@H](CC(C)C)C(=O)N(C)[C@@H](CC(C)C)C(=O)N(C)[C@@H]([C@@H](C)CC)C(=O)N1C [MeVal^11 MeIle] | 0.0 | 0.0 | 0.4 | 0.3 | 0.2
2 | C/C=C/C[C@@H](C)[C@@H](O)[C@H]1C(=O)N[C@@H](CC)C(=O)N(C)CC(=O)N(C)[C@@H](CC(C)C)C(=O)N[C@@H](CCSC)C(=O)N(C)[C@@H](CC(C)C)C(=O)N[C@@H](C)C(=O)N[C@H](C)C(=O)N(C)[C@@H](CC(C)C)C(=O)N(C)[C@@H](CC(C)C)C(=O)N(C)[C@@H](C(C)C)C(=O)N1C [Val^5 Met] | 1.5 | < 0.0 | < 0.0 | < 0.0 | 0.0
3 | C/C=C/C[C@@H](C)[C@@H](O)[C@H]1C(=O)N[C@@H](CC)C(=O)N(C)CC(=O)N(C)[C@@H](CC(C)C)C(=O)N(C)[C@@H](CC(C)C)C(=O)N(C)[C@@H](CC(C)C)C(=O)N[C@@H](C)C(=O)N[C@H](C)C(=O)N(C)[C@@H](CC(C)C)C(=O)N(C)[C@@H](CC(C)C)C(=O)N(C)[C@@H](C(C)C)C(=O)N1C [Val^5 MeLeu] | 1.2 | 0.3 | 1.0 | < 0.0 | 0.0
4 | C/C=C/C[C@@H](C)[C@@H](O)[C@H]1C(=O)N[C@@H](CC)C(=O)N(C)C(COC(C)=O)C(=O)N(C)[C@@H](CC(C)C)C(=O)N[C@@H](C(C)C)C(=O)N(C)[C@@H](CC(C)C)C(=O)N[C@@H](C)C(=O)N[C@H](C)C(=O)N(C)[C@@H](CC(C)C)C(=O)N(C)[C@@H](CC(C)C)C(=O)N(C)[C@@H](C(C)C)C(=O)N1C (stereo partly drawn) [Sar^3 O-Acetyl-MeSer] | 2.1 | 2.2 | 1.2 | 1.5 | 0.4
5 | C/C=C/C[C@@H](C)[C@@H](O)[C@H]1C(=O)N[C@@H]([C@H](C)O)C(=O)N(C)CC(=O)N(C)[C@@H](CC(C)C)C(=O)N[C@@H](C(C)C)C(=O)N(C)[C@@H](CC(C)C)C(=O)N[C@@H](C)C(=O)N[C@H](C)C(=O)N(C)[C@@H](CC(C)C)C(=O)N(C)[C@@H](CC(C)C)C(=O)N(C)[C@@H](C(C)C)C(=O)N1C [Abu^2 aThr] | 1.5 | 1.1 | < 0.0 | 0.3 | 0.0
6 | C/C=C/C[C@@H](C)[C@@H](O)[C@H]1C(=O)N[C@@H](CC)C(=O)N(C)CC(=O)N(C)[C@@H](CC(C)C)C(=O)N[C@@H](C(C)C)C(=O)N(C)[C@@H](CC(C)C)C(=O)N[C@@H](CC)C(=O)N[C@H](C)C(=O)N(C)[C@@H](CC(C)C)C(=O)N(C)[C@@H](CC(C)C)C(=O)N(C)[C@@H](C(C)C)C(=O)N1C [Ala^7 Abu] | 0.0 | 0.0 | < 0.0 | < 0.0 | 0.0
